Results: publication PMC6629785, “Synthesis and Pharmacological Evaluation of a Novel Peptide Based on Anemonia sulcata BDS-I Toxin as a New KV3.4 Inhibitor Exerting a Neuroprotective Effect Against Amyloid-β Peptide” (Frontiers in Chemistry, 2019)
Ends that are not written are not given here.

Molecular target: T1, KV3.4 channels (Homo sapiens, UniProt Q03721)
T1 construct: expressed in transfected cells; host or cells: CHO cells, transient transfection with Lipofectamine 2000; cDNAs provided by Professor Goldstein, University of Chicago
T1 sequence (Q03721 1-635): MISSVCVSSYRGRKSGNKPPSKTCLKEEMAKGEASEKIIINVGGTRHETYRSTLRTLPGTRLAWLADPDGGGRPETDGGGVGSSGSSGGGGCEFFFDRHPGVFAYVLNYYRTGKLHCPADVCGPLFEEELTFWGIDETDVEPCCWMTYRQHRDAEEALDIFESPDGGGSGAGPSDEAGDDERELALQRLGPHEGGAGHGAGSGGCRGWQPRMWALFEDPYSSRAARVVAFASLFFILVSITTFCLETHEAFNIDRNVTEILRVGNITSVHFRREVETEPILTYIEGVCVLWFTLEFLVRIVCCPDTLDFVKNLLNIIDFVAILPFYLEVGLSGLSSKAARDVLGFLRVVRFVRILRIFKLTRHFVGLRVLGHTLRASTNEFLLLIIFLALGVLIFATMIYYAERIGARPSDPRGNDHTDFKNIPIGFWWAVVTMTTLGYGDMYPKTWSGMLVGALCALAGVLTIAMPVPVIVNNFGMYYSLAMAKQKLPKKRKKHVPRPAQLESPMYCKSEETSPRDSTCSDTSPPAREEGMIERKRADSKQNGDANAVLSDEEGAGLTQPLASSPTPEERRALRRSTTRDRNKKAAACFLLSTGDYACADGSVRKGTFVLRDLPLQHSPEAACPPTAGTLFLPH
T1 sequence (Q9Y6H6 1-103 partner): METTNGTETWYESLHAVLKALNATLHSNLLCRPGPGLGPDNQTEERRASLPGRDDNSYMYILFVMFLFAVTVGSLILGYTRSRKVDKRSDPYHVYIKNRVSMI
Experiment: Whole-cell patch clamp of Kv3.4 currents in CHO cells transiently transfected with Kv3.4/MiRP2
Format: cell-based
Conditions: for percentage of inhibition of Kv3.4 currents: acute application in extracellular solution, peak of depolarizing pulse +60 mV, [(C0-C1)/C0] x 100, mean of 6 to 10 cells, three sessions
Method: KV3.4 and MiRP2 channel subunits were expressed in Chinese hamster ovary (CHO) cells by transient transfection. CHO cells were grown in 100 mm plastic Petri dishes in Dulbecco's Modified Eagle Medium containing 10% fetal bovine serum (FBS), non-essential amino acids (0.1 mm), penicillin (50 U/ml), and streptomycin (50 μg/ml) in a humidified atmosphere at 37°C with 5% CO2 (Miceli et al., [2015]). KV3.4 and MiRP2 cDNAs were kindly provided by the Professor Goldstein of the Department of Pediatrics and Institute for Molecular Pediatric Sciences, University of Chicago, USA. For electrophysiological experiments, cells were seeded on glass cover-slips (Glaswarenfabrik Karl Hecht KG, Sondheim, Germany) coated with poly-L-lysine (50 μg/mL) and transfected the next day with the appropriate cDNAs using Lipofectamine 2000 according to guidelines for transfection. We performed electrophysiological experiments 48 h after transfection.
Currents from CHO cells were recorded at room temperature 1-2 days after transfection. The extracellular solution contained the following (in mM): 138 NaCl, 5.4 KCl, 2 CaCl2, 1 MgCl2, 10 glucose and 10 HEPES, adjusted pH 7.4 with NaOH. The pipette solution contained (in mM) the following: 140 KCl, 2 MgCl2, 10 EGTA, 10 HEPES, 5 Mg-ATP, adjusted pH 7.4 with KOH (Miceli et al., [2015]). KV3.4 currents were measured by applying voltage steps from −100 mV to +60 mV from a holding potential of −80 mV (Abbott et al., [2001]). Moreover, the total outward K^+ currents were recorded in NGF-differentiated PC-12 cells using the extracellular solution contained the following (in mM): 150 NaCl, 5.4 KCl, 3 CaCl2, 1 MgCl2, 10 HEPES, adjusted pH 7.4 with NaOH. The pipette solution contained the following (in mM): 140 KCl, 2 MgCl2, 10 HEPES, 10 glucose, 10 EGTA, and 1 Mg-ATP adjusted at pH 7.4 with KOH (Diochot et al., [1998]). All experiments were performed in the presence of 50 nM tetrodotoxin (TTX) and 10 μ M nimodipine in the extracellular solution. To discriminate K^+ current components appropriate electrophysiological protocols were used (Pannaccione et al., [2007]). Steady-state activation and inactivation properties were measured by using appropriate protocols (Pannaccione et al., [2005]). Capacitive currents were elicited by 5-mV depolarizing pulses from −80 mV and acquired at a sampling rate of 50 kHz. The capacitance of the membrane was calculated according to the following equation: Cm = τc·Io/ΔEm (1-I∞/Io), where Cm is membrane capacitance, τc is the time constant of the membrane capacitance, Io is the maximum capacitance current value, ΔEm is the amplitude of the voltage step, and I∞ is the amplitude of the steady-state current. K^+ currents were recorded by patch-clamp technique in CHO and NGF-differentiated PC-12 cells using a commercially available amplifier (Axopatch 200B, Molecular Devices) and Digidata 1322A interface (Molecular Devices, USA). The whole-cell configuration of the patch-clamp technique was adopted using glass micropipettes with a resistance of 2.5-5.0 MΩ. Data were acquired and analyzed using the pClamp software (version 9, Molecular Devices).
For the acute treatment, each peptide has been added in the extracellular solution. For each cell, we first recorded K^+ currents as previously described, in the absence of peptides. After that, we switched from the extracellular solution without BDS-I peptides to the extracellular solution containing the BDS-I peptide. In these conditions, we recorded K^+ currents until the steady-state was reached. This protocol has been performed to test the effect on KV3.4 currents of each BDS-I fragment as well as of BDS-I[1-8scr].
To identify the smallest BDS-I amino acid sequence able to block Kv3.4 activity, we evaluated the effect of the newly synthesized BDS-I fragments in CHO cells transiently transfected with Kv3.4/MiRP2, by patch clamp technique in whole cell configuration. […]

[1] = peptide 100 nM, CHO cells transfected with Kv3.4/MiRP2

| Substance | percentage of inhibition of Kv3.4 currents [1] | ability to inhibit Kv3.4 currents (in words) (peptide 100 nM, acute application, CHO cells transfected with Kv3.4/MiRP2, whole-cell patch clamp) | effect on steady-state parameters for activation and inactivation of Kv3.4 currents (100 nM, Boltzmann fit) | time of peptide exposure at which steady-state of inhibition was reached (100 nM, currents at peak of repetitive (20 sec) depolarizing pulses (+60 mV)) | voltage dependence of Kv3.4 current inhibition (I-V relationship) (100 nM, peak current before and during application, pulses from +60 to −100 mV) | IC50 (CHO cells transiently transfected with KV3.4/MiRP2, inhibitory dose-response curve, % of inhibition normalized to controls) |
| --- | --- | --- | --- | --- | --- | --- |
| blood depressing substance-I [BDS-I] | ~ 60% | – | – | – | – | – |
| H-GSAFAPAA-OH [BDS-I[1-8scr]] | – | not able to modify KV3.4 activity | – | – | – | – |
| AAPAFASG [BDS-I[1-8]] | more than 80% | – | did not modify | 150 s | not voltage-dependent | 75 nM |
